Results as given in patent US20260262643A1, “HERBICIDAL BENZOXAZINES” (FMC CORPORATION, priority 2022, published 2026).

Key:
[1] = test system: ragweed; assay: Test C preemergence; assay type: in vivo, Ambrosia artemisiifolia; settings: for Ragweed plant response rating: 500 g ai/ha, preemergence, 0 to 100 scale (0 no effect, 100 complete control); for Plant response rating, Ragweed: Preemergence, 125 g ai/ha, 0 to 100 scale, 0 no effect, 100 complete control
In short: (§1)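 Seeds sown in loam soil–sand blend received a directed preemergence soil spray of test chemical in non-phytotoxic solvent with surfactant; postemergence plants (2–10 cm, one- to two-leaf stage) were sprayed with the same formulation. Greenhouse-held 10 days, then visually rated for injury versus untreated controls, 0 (no effect) to 100 (complete control).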

[2] = test system: sedge, umbrella; assay: Test D flooded paddy test; assay type: in vivo, Cyperus difformis; settings: 250 g ai/ha, applied to paddy water, visual rating after 13 to 14 days, scale 0 to 100 (0 no effect, 100 complete control)
In short: (§2)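 2-leaf plants; flood 3 cm above soil; compound dosed into paddy water; greenhouse 13–14 d; visual rating vs controls, 0–100 (100 = complete control); dash = not tested.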

[3] = test system: barnyardgrass; assay: Test C preemergence; assay type: in vivo, Echinochloa crusgalli; settings: for Barnyardgrass plant response rating: 500 g ai/ha, preemergence, 0 to 100 scale (0 no effect, 100 complete control); for Plant response rating, Barnyardgrass: Preemergence, 125 g ai/ha, 0 to 100 scale, 0 no effect, 100 complete control
In short: as §1

[4] = test system: horseweed; assay: Test C postemergence; assay type: in vivo, Erigeron canadensis; settings: 10 days, 0 to 100 scale (0 no effect, 100 complete control)
In short: as §1

[5] = test system: barnyardgrass; assay: Test D flooded paddy test; assay type: in vivo, Echinochloa crus-galli; settings: 250 g ai/ha, applied to paddy water, visual rating after 13 to 14 days, scale 0 to 100 (0 no effect, 100 complete control)
In short: as §2

[6] = test system: kochia; assay: Test C preemergence; assay type: in vivo, Bassia scoparia; settings: for Kochia plant response rating: 500 g ai/ha, preemergence, 0 to 100 scale (0 no effect, 100 complete control); for Plant response rating, Kochia: Preemergence, 125 g ai/ha, 0 to 100 scale, 0 no effect, 100 complete control
In short: as §1

[7] = test system: green foxtail; assay: Test C postemergence; assay type: in vivo, Setaria viridis; settings: 10 days, 0 to 100 scale (0 no effect, 100 complete control)
In short: as §1

[8] = test system: blackgrass; assay: Test C postemergence; assay type: in vivo, Alopecurus myosuroides; settings: 10 days, 0 to 100 scale (0 no effect, 100 complete control)
In short: as §1

[9] = test system: oat, wild; assay: Test C preemergence; assay type: in vivo, Avena fatua; settings: for Oat, Wild plant response rating: 500 g ai/ha, preemergence, 0 to 100 scale (0 no effect, 100 complete control); for Plant response rating, Oat, Wild: Preemergence, 125 g ai/ha, 0 to 100 scale, 0 no effect, 100 complete control
In short: as §1

[10] = test system: oat, wild; assay: Test C postemergence; assay type: in vivo, Avena fatua; settings: 10 days, 0 to 100 scale (0 no effect, 100 complete control)
In short: as §1

[11] = test system: ducksalad; assay: Test D flooded paddy test; assay type: in vivo, Heteranthera limosa; settings: 250 g ai/ha, applied to paddy water, visual rating after 13 to 14 days, scale 0 to 100 (0 no effect, 100 complete control)
In short: as §2

[12] = test system: pigweed, palmer; assay: Test C postemergence; assay type: in vivo, Amaranthus palmeri; settings: 10 days, 0 to 100 scale (0 no effect, 100 complete control)
In short: as §1

[13] = test system: rice; assay: Test D flooded paddy test; assay type: in vivo, Oryza sativa; settings: 250 g ai/ha, applied to paddy water, visual rating after 13 to 14 days, scale 0 to 100 (0 no effect, 100 complete control)
In short: as §2

[14] = test system: green foxtail; assay: Test C preemergence; assay type: in vivo, Setaria viridis; settings: for Foxtail, Green plant response rating: 500 g ai/ha, preemergence, 0 to 100 scale (0 no effect, 100 complete control); for Plant response rating, Foxtail, Green: Preemergence, 125 g ai/ha, 0 to 100 scale, 0 no effect, 100 complete control
In short: as §1

[15] = test system: ryegrass, Italian; assay: Test C preemergence; assay type: in vivo, Lolium multiflorum; settings: for Ryegrass, Italian plant response rating: 500 g ai/ha, preemergence, 0 to 100 scale (0 no effect, 100 complete control); for Plant response rating, Ryegrass, Italian: Preemergence, 125 g ai/ha, 0 to 100 scale, 0 no effect, 100 complete control
In short: as §1

[16] = test system: galium; assay: Test C postemergence; assay type: in vivo, Galium aparine; settings: 10 days, 0 to 100 scale (0 no effect, 100 complete control)
In short: as §1

[17] = test system: wheat; assay: Test C preemergence; assay type: in vivo, Triticum aestivum; settings: for Wheat plant response rating: 500 g ai/ha, preemergence, 0 to 100 scale (0 no effect, 100 complete control); for Plant response rating, Wheat: Preemergence, 125 g ai/ha, 0 to 100 scale, 0 no effect, 100 complete control
In short: as §1

[18] = test system: soybean; assay: Test C postemergence; assay type: in vivo, Glycine max; settings: 10 days, 0 to 100 scale (0 no effect, 100 complete control)
In short: as §1

[19] = test system: blackgrass; assay: Test C preemergence; assay type: in vivo, Alopecurus myosuroides; settings: for Blackgrass plant response rating: 500 g ai/ha, preemergence, 0 to 100 scale (0 no effect, 100 complete control); for Plant response rating, Blackgrass: Preemergence, 125 g ai/ha, 0 to 100 scale, 0 no effect, 100 complete control
In short: as §1

[20] = test system: ragweed; assay: Test C postemergence; assay type: in vivo, Ambrosia artemisiifolia; settings: 10 days, 0 to 100 scale (0 no effect, 100 complete control)
In short: as §1

[21] = test system: pigweed, palmer; assay: Test C preemergence; assay type: in vivo, Amaranthus palmeri; settings: for Pigweed, Palmer plant response rating: 500 g ai/ha, preemergence, 0 to 100 scale (0 no effect, 100 complete control); for Plant response rating, Pigweed, Palmer: Preemergence, 125 g ai/ha, 0 to 100 scale, 0 no effect, 100 complete control
In short: as §1

[22] = test system: corn; assay: Test C preemergence; assay type: in vivo, Zea mays; settings: for Corn plant response rating: 500 g ai/ha, preemergence, 0 to 100 scale (0 no effect, 100 complete control)
In short: as §1

[23] = test system: corn; assay: Test C postemergence; assay type: in vivo, Zea mays; settings: 10 days, 0 to 100 scale (0 no effect, 100 complete control)
In short: as §1

[24] = test system: soybean; assay: Test C preemergence; assay type: in vivo, Glycine max; settings: for Soybean plant response rating: 500 g ai/ha, preemergence, 0 to 100 scale (0 no effect, 100 complete control); for Plant response rating, Soybean: Preemergence, 125 g ai/ha, 0 to 100 scale, 0 no effect, 100 complete control
In short: as §1

[25] = test system: wheat; assay: Test C postemergence; assay type: in vivo, Triticum aestivum; settings: 10 days, 0 to 100 scale (0 no effect, 100 complete control)
In short: as §1

[26] = test system: ryegrass, Italian; assay: Test C postemergence; assay type: in vivo, Lolium multiflorum; settings: 10 days, 0 to 100 scale (0 no effect, 100 complete control)
In short: as §1

[27] = test system: barnyardgrass; assay: Test C postemergence; assay type: in vivo, Echinochloa crusgalli; settings: 10 days, 0 to 100 scale (0 no effect, 100 complete control)
In short: as §1

[28] = test system: kochia; assay: Test C postemergence; assay type: in vivo, Bassia scoparia; settings: 10 days, 0 to 100 scale (0 no effect, 100 complete control)
In short: as §1

Cc1ncn(-c2ccc(F)c(C(=O)N3C[C@H](C)Oc4c(C)cccc43)c2)n1 [Compound 361]
Ragweed plant response rating [1]: 70
Plant response rating, Ragweed [1]: 50
Plant response rating, Sedge, Umbrella (Flood) [2]: 95
Barnyardgrass plant response rating [3]: 90
Plant response rating, Barnyardgrass [3]: 80
Plant response rating, Horseweed ([4]; 500 g ai/ha, postemergence): 10
Plant response rating, Horseweed ([4]; Postemergence, 125 g ai/ha): 0
Plant response rating, Barnyardgrass (Flood) [5]: 30
Kochia plant response rating [6]: 90
Plant response rating, Kochia [6]: 80
Plant response rating, Foxtail, Green ([7]; 500 g ai/ha, postemergence): 90
Plant response rating, Foxtail, Green ([7]; Postemergence, 125 g ai/ha): 90
Plant response rating, Blackgrass ([8]; 500 g ai/ha, postemergence): 90
Plant response rating, Blackgrass ([8]; Postemergence, 125 g ai/ha): 80
Oat, Wild plant response rating [9]: 50
Plant response rating, Oat, Wild [9]: 0
Plant response rating, Oat, Wild ([10]; 500 g ai/ha, postemergence): 80
Plant response rating, Oat, Wild ([10]; Postemergence, 125 g ai/ha): 30
Plant response rating, Ducksalad (Flood) [11]: 70
Plant response rating, Pigweed, Palmer ([12]; 500 g ai/ha, postemergence): 60
Plant response rating, Pigweed, Palmer ([12]; Postemergence, 125 g ai/ha): 20
Plant response rating, Rice (Flood) [13]: 15
Foxtail, Green plant response rating [14]: 100
Plant response rating, Foxtail, Green [14]: 100
Ryegrass, Italian plant response rating [15]: 80
Plant response rating, Ryegrass, Italian [15]: 80
Plant response rating, Galium ([16]; 500 g ai/ha, postemergence): 100
Plant response rating, Galium ([16]; Postemergence, 125 g ai/ha): 100
Wheat plant response rating [17]: 70
Plant response rating, Wheat [17]: 50
Plant response rating, Soybean ([18]; 500 g ai/ha, postemergence): 100
Plant response rating, Soybean ([18]; Postemergence, 125 g ai/ha): 100
Blackgrass plant response rating [19]: 60
Plant response rating, Blackgrass [19]: 40
Plant response rating, Ragweed ([20]; 500 g ai/ha, postemergence): 60
Plant response rating, Ragweed ([20]; Postemergence, 125 g ai/ha): 60
Pigweed, Palmer plant response rating [21]: 100
Plant response rating, Pigweed, Palmer [21]: 90
Corn plant response rating [22]: 10
Plant response rating, Corn ([22]; Preemergence, 125 g ai/ha, 0 to 100 scale, 0 no effect, 100 complete control): 0
Plant response rating, Corn ([23]; 500 g ai/ha, postemergence): 50
Plant response rating, Corn ([23]; Postemergence, 125 g ai/ha): 20
Soybean plant response rating [24]: 100
Plant response rating, Soybean [24]: 100
Plant response rating, Wheat ([25]; 500 g ai/ha, postemergence): 80
Plant response rating, Wheat ([25]; Postemergence, 125 g ai/ha): 40
Plant response rating, Ryegrass, Italian ([26]; 500 g ai/ha, postemergence): 90
Plant response rating, Ryegrass, Italian ([26]; Postemergence, 125 g ai/ha): 80
Plant response rating, Barnyardgrass ([27]; 500 g ai/ha, postemergence): 90
Plant response rating, Barnyardgrass ([27]; Postemergence, 125 g ai/ha): 70
Plant response rating, Kochia ([28]; 500 g ai/ha, postemergence): 80
Plant response rating, Kochia ([28]; Postemergence, 125 g ai/ha): 70

Cc1ncn(-c2ccc(F)c(C(=S)N3C[C@H](C)Oc4c(C)cccc43)c2)n1 [Compound 362]
Ragweed plant response rating [1]: 60
Plant response rating, Ragweed [1]: 20
Plant response rating, Sedge, Umbrella (Flood) [2]: 95
Barnyardgrass plant response rating [3]: 100
Plant response rating, Barnyardgrass [3]: 80
Plant response rating, Horseweed ([4]; 500 g ai/ha, postemergence): 10
Plant response rating, Horseweed ([4]; Postemergence, 125 g ai/ha): 0
Plant response rating, Barnyardgrass (Flood) [5]: 35
Kochia plant response rating [6]: 80
Plant response rating, Kochia [6]: 70
Plant response rating, Foxtail, Green ([7]; 500 g ai/ha, postemergence): 90
Plant response rating, Foxtail, Green ([7]; Postemergence, 125 g ai/ha): 70
Plant response rating, Blackgrass ([8]; 500 g ai/ha, postemergence): 90
Plant response rating, Blackgrass ([8]; Postemergence, 125 g ai/ha): 70
Oat, Wild plant response rating [9]: 70
Plant response rating, Oat, Wild [9]: 0
Plant response rating, Oat, Wild ([10]; 500 g ai/ha, postemergence): 60
Plant response rating, Oat, Wild ([10]; Postemergence, 125 g ai/ha): 30
Plant response rating, Ducksalad (Flood) [11]: 50
Plant response rating, Pigweed, Palmer ([12]; 500 g ai/ha, postemergence): 80
Plant response rating, Pigweed, Palmer ([12]; Postemergence, 125 g ai/ha): 30
Plant response rating, Rice (Flood) [13]: 25
Foxtail, Green plant response rating [14]: 100
Plant response rating, Foxtail, Green [14]: 100
Ryegrass, Italian plant response rating [15]: 90
Plant response rating, Ryegrass, Italian [15]: 80
Plant response rating, Galium ([16]; 500 g ai/ha, postemergence): 100
Plant response rating, Galium ([16]; Postemergence, 125 g ai/ha): 100
Wheat plant response rating [17]: 40
Plant response rating, Wheat [17]: 10
Plant response rating, Soybean ([18]; 500 g ai/ha, postemergence): 100
Plant response rating, Soybean ([18]; Postemergence, 125 g ai/ha): 100
Blackgrass plant response rating [19]: 80
Plant response rating, Blackgrass [19]: 50
Plant response rating, Ragweed ([20]; 500 g ai/ha, postemergence): 60
Plant response rating, Ragweed ([20]; Postemergence, 125 g ai/ha): 50
Pigweed, Palmer plant response rating [21]: 100
Plant response rating, Pigweed, Palmer [21]: 90
Corn plant response rating [22]: 20
Plant response rating, Corn ([23]; 500 g ai/ha, postemergence): 40
Plant response rating, Corn ([23]; Postemergence, 125 g ai/ha): 30
Soybean plant response rating [24]: 70
Plant response rating, Soybean [24]: 50
Plant response rating, Wheat ([25]; 500 g ai/ha, postemergence): 60
Plant response rating, Wheat ([25]; Postemergence, 125 g ai/ha): 40
Plant response rating, Ryegrass, Italian ([26]; 500 g ai/ha, postemergence): 90
Plant response rating, Ryegrass, Italian ([26]; Postemergence, 125 g ai/ha): 80
Plant response rating, Barnyardgrass ([27]; 500 g ai/ha, postemergence): 90
Plant response rating, Barnyardgrass ([27]; Postemergence, 125 g ai/ha): 60
Plant response rating, Kochia ([28]; 500 g ai/ha, postemergence): 90
Plant response rating, Kochia ([28]; Postemergence, 125 g ai/ha): 80
